For assay [1], the target named is T1, catalytic domain of human PARP14 (residues 1611 to 1801) with NanoLuc tag (Homo sapiens, UniProt Q460N5).
T1 construct: expressed in transfected cells; host or cells: HEK-293T cells (ATCC), plasmid pRTX240 in pcDNA3.1(-)
T1 sequence (Q460N5 1611-1801): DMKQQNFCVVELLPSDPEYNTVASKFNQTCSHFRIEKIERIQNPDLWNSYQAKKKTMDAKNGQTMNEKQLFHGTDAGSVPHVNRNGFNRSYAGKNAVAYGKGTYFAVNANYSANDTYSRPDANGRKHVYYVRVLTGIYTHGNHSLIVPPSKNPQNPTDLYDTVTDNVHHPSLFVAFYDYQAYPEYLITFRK
The experiment in a line: NanoLuc assay for the degradation of PARP14. The class given is cell-based. As to conditions: Assay A; NanoLuc-PARP14 overexpressed in HEK-293T cells; 2 hours at 37 degrees; luminescence. A digest of the protocol:
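HEK-293T cells transiently transfected 24 hrs with N-terminal NanoLuc-tagged human PARP14 catalytic domain (residues 1611-1801), then exposed to compound dose response for 2 hours at 37 degrees. NanoGlo luminescence expressed as % of 0.1% DMSO wells; DC50 from floating 4-parameter fit, reported as banded ranges.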

Assay [2] deals with Alternaria asthma mouse model. The experiment in a line: Alternaria asthma mouse model: cell counts and cytokines in BALF. Type of assay: in vivo. Conditions: for total cell counts in BALF: 30 and 100 mg/kg once daily for 7 days subcutaneous, vs vehicle P<0.05. The method, then: The effect of Compound 17 was studied in an Alternaria asthma mouse model. On days 1-5, male Balb/c mice under isoflurane anesthesia were challenged by instilling solution of 5 μg (protein weight) Alternaria in 40 μL of PBS into each nostril. Compound 17 was administered two days prior to Alternaria challenge (defined day as day −1) and animals were treated with vehicle (10% DMSO/45% PEG-400/45% ‘20% HP-3-CD’ in water) or Compound 17 (30 and 100 mg/kg) once daily for 7 days (defined as day −1 to day 5) by subcutaneous injection. Total and differential cell counts of the BALF fluid samples were measured using a XT-2000iV analyzer (Sysmex). Cytokine concentrations of BALF supernatant were measured in samples from all groups using ELISA kit (Biotechne, UK). Statistical significance is calculated using one-way ANOVA followed by Dunnett's post-tests in which the treatment groups were compared to vehicle control (P<0.05).

The target of the next assay is T2, PARP14 (Homo sapiens, UniProt Q460N5).
T2 construct: engineered to contain a HiBiT tag on both alleles of the PARP14 gene; endogenous in cells; host or cells: Jurkat cells stably expressing LgBiT (Promega), with CRISPR/Cas9 knock-in of HiBiT at the PARP14 locus
Description: HiBiT assay for the degradation of PARP14 (HiBiT tagged PARP14 in LgBiT expressing Jurkat cells). Conditions: Assay B, 37° C. for 2 or 24 hours, luminescence, read-out: DC50. The class given is cell-based. The protocol:
Jurkat cells stably transfected with LgBiT (Promega) were engineered to contain a HiBiT tag on both alleles of the PARP14 gene (Genbank Accession Number: NM_017554) via CRISPR/Cas9 editing. The HiBiT tag is an 11 amino acid tag created by Promega that associates with LgBiT protein to form the NanoLuc® tag on the C-terminus of PARP14. Clones were isolated and confirmed for the HiBiT tag via Sanger sequencing.
Degradation of PARP14 protein was assessed by measuring the luminescence of the HiBiT tag associating with the LgBiT protein as a proxy for the PARP14 protein. Jurkat cells were diluted to 250,000 cells per mL and then added to assay plate (Corning 3574) using a Multidrop (Thermo Fisher) to add 20 μL per well of the 384 well plate, resulting in 5,000 cells per well. 20 nL of a dose response curve diluted in DMSO of each test compound was added to the cell plate using a Mosquito (TTP Labtech) and the plate was incubated at 37° C. for 2 or 24 hours. Assay plate was brought to room temperature then 5 μL per well of Live Cell Substrate (Promega) was added to the plate. Luminescence was measured on an Envision (Perkin Elmer).
The average DMSO was calculated from 32 wells containing 0.1% DMSO only in columns 12 and 24 of the assay plate. The % of DMSO values were calculated as described below: […]
The % of DMSO values were plotted as a function of compound concentration and the following 4-parameter fit was applied to derive the DC50 values:
where top, bottom, and Hill Coefficient are allowed to float. Y is the % of DMSO and X is the compound concentration.
DC50 data for the Example compounds is provided below in Table 2 (“+” is <0.03 μM; “++” is ≥0.03 μM).
On the technique in general: With HiBiT, luminescence reflects the tagged protein that the partner subunit can reach.

The mark [3] stands for this setting: male Balb/c mice, Alternaria challenge, 30 and 100 mg/kg once daily 7 days s.c., dose-dependent starting from 30 mg/kg.

Where a name gives a salt, the structure may show the parent alone. A value given as a limit tells only on which side of the number the result lay.

T2 sequence (Q460N5 whole entry): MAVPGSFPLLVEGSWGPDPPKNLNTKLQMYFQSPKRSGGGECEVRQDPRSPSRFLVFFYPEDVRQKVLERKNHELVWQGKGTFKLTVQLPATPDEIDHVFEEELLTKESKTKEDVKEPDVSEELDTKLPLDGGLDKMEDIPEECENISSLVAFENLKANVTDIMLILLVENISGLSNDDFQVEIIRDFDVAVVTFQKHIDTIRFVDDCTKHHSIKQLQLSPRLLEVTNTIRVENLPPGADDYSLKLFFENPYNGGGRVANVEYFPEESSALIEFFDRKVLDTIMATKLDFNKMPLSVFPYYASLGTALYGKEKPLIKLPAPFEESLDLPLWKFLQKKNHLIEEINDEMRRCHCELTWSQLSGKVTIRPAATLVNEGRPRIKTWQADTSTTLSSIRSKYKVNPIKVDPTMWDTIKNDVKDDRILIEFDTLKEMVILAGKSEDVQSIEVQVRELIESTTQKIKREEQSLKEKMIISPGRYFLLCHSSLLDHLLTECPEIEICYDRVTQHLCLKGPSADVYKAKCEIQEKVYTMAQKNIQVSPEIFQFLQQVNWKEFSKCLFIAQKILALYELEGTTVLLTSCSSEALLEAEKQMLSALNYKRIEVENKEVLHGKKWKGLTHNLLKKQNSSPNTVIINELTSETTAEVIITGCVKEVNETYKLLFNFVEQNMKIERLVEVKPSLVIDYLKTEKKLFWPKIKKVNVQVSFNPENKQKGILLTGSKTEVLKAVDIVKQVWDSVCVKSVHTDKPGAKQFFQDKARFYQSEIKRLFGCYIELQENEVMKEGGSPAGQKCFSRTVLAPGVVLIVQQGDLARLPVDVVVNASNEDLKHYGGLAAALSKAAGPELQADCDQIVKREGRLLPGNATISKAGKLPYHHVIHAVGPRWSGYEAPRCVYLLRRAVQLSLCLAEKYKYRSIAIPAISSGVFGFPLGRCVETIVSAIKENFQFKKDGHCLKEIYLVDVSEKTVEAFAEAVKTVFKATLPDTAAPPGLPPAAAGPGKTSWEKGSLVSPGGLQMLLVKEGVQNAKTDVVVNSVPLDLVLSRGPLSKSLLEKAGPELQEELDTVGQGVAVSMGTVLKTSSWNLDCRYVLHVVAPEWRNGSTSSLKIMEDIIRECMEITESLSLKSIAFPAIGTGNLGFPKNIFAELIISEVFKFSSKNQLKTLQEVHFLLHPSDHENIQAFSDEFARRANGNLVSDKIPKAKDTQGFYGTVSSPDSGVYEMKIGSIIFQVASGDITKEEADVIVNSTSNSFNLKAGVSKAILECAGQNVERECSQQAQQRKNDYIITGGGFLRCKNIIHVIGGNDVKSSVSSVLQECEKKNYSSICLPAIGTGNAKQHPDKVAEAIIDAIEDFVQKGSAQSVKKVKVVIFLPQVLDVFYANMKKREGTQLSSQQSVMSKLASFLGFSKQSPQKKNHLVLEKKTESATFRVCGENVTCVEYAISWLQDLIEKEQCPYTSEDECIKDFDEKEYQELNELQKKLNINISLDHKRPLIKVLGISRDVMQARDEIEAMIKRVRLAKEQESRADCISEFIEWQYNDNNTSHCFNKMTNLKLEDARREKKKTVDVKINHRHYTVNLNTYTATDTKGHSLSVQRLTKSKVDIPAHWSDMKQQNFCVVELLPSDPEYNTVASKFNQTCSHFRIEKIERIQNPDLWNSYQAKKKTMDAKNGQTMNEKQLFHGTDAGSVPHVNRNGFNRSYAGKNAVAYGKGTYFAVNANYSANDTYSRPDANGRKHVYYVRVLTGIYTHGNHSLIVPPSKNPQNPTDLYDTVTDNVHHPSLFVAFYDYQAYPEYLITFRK

In general, DC50 refers to the concentration at which degradation of the target reaches its halfway point. Turning to `O=C1CCC(Nc2ccc(C3CCN(CC4CCN(C(=O)CN5CCC(SCc6nc7cc(OCC8CCOCC8)cc(F)c7c(=O)[nH]6)CC5)CC4)CC3)cc2)C(=O)N1` (stereo not shown) [Example 17, 3-((4-(1-((1-(2-(4-(((5-fluoro-4-oxo-7-((tetrahydro-2H-pyran-4-yl)methoxy)-3,4-dihydroquinazolin-2-yl)methyl)thio)piperidin-1-yl)acetyl)piperidin-4-yl)methyl)piperidin-4-yl)phenyl)amino)piperidine-2,6-dione], in assay [1], the DC50 was below 100 nM. In addition, the “eosinophil in BALF” value in assay [2] (FIG. 2A legend, dose-dependent starting from 100 mg/kg) is on record as “significantly reduces”. Also, the “cytokine IL-33 in BALF” value in assay [2] (FIG. 2B legend, dose-dependent starting from 100 mg/kg) is “significantly reduces”; in assay [2] (setting [3]), “significantly reduces”. In addition, the “cytokine IL-4 in BALF” value in assay [2] (FIG. 2C legend, dose-dependent starting from 100 mg/kg) is given as “significantly reduces”; in assay [2] (setting [3]) it was “significantly reduces”. For the same compound, the “cytokine IL-5 in BALF” value is “significantly reduces” in assay [2] (FIG. 2D legend, dose-dependent starting from 100 mg/kg) and “significantly reduces” in assay [2] (setting [3]). In addition, in assay [2] (setting [3]), the “eosinophils in BALF” value is given as “significantly reduces”. The “total cell counts in BALF” value is “dose-dependent reduction” in assay [2] (male Balb/c mice, Alternaria challenge, dose-dependent starting from 30 mg/kg) and “significantly reduces” in assay [2] (male Balb/c mice, Alternaria challenge, dose-dependent starting from 30 mg/kg, listed as Compound 17).

`O=C1CCN(c2ccc(N3CCC(N4CCC(SCc5nc6cc(OCC7CC7)cc(F)c6c(=O)[nH]5)CC4)CC3)c(F)c2)C(=O)N1` [Example 60, 1-(4-(4-(((7-(cyclopropylmethoxy)-5-fluoro-4-oxo-3,4-dihydroquinazolin-2-yl)methyl)thio)-[1,4′-bipiperidin]-1′-yl)-3-fluorophenyl)dihydropyrimidine-2,4(1H,3H)-dione]: the DC50 at PARP14 was below 30 nM.

For `O=C1CCC(Nc2ccc(N3CCC(C4CCN(CCc5nc6cc(OCC7CC7)cc(F)c6c(=O)[nH]5)CC4)CC3)c(F)c2)C(=O)N1` (stereo not shown) [Example 64, 3-((4-(1′-(2-(7-(cyclopropylmethoxy)-5-fluoro-4-oxo-3,4-dihydroquinazolin-2-yl)ethyl)-[4,4′-bipiperidin]-1-yl)-3-fluorophenyl)amino)piperidine-2,6-dione], the DC50 on PARP14 was below 30 nM.

Consider `O=C1CCC(Nc2ccc(N3CCC(N4CCC(SCc5nc6cc(OCC7CCOCC7)cc(F)c6c(=O)[nH]5)CC4)CC3)c(F)c2)C(=O)N1` (stereo not shown) [Example 52, 3-((3-fluoro-4-(4-(((5-fluoro-4-oxo-7-((tetrahydro-2H-pyran-4-yl)methoxy)-3,4-dihydroquinazolin-2-yl)methyl)thio)-[1,4′-bipiperidin]-1′-yl)phenyl)amino)piperidine-2,6-dione], for which the DC50 at PARP14 was below 30 nM.

With `O=C1CCC(Nc2ccc(N3CCC(N4CC(N5CCC(SCc6nc7cc(OCC8CC8)cc(F)c7c(=O)[nH]6)CC5)C4)CC3)c(F)c2)C(=O)N1` (stereo not shown) [Example 48, 3-((4-(4-(3-(4-(((7-(cyclopropylmethoxy)-5-fluoro-4-oxo-3,4-dihydroquinazolin-2-yl)methyl)thio)piperidin-1-yl)azetidin-1-yl)piperidin-1-yl)-3-fluorophenyl)amino)piperidine-2,6-dione], the DC50 on PARP14 was below 30 nM.

On to `O=C1CCC(N2C(=O)c3cccc4c(N5CCN(CCN6CCC(SCc7nc8cc(OCC9CC9)cc(F)c8c(=O)[nH]7)CC6)CC5)ccc2c34)C(=O)N1` (stereo not shown) [Example 49, 3-(6-(4-(2-(4-(((7-(cyclopropylmethoxy)-5-fluoro-4-oxo-3,4-dihydroquinazolin-2-yl)methyl)thio)piperidin-1-yl)ethyl)piperazin-1-yl)-2-oxobenzo[cd]indol-1(2H)-yl)piperidine-2,6-dione], for which, on PARP14, the DC50 was below 30 nM.

Turning to `O=C1CCN(c2cncc3c(N4CCC(N5CCC(SCc6nc7cc(OCC8CC8)cc(F)c7c(=O)[nH]6)CC5)CC4)cccc23)C(=O)N1` [Example 62, 1-(8-(4-(((7-(cyclopropylmethoxy)-5-fluoro-4-oxo-3,4-dihydroquinazolin-2-yl)methyl)thio)-[1,4′-bipiperidin]-1′-yl)isoquinolin-4-yl)dihydropyrimidine-2,4(1H,3H)-dione], the DC50 at PARP14 is below 30 nM.

On to `O=C1CCC(Nc2ccc(N3CCN(CCN4CCC(SCc5nc6cc(OCC7CCOCC7)cc(F)c6c(=O)[nH]5)CC4)CC3)c(F)c2)C(=O)N1` (stereo not shown) [Example 46, 3-((3-fluoro-4-(4-(2-(4-(((5-fluoro-4-oxo-7-((tetrahydro-2H-pyran-4-yl)methoxy)-3,4-dihydroquinazolin-2-yl)methyl)thio)piperidin-1-yl)ethyl)piperazin-1-yl)phenyl)amino)piperidine-2,6-dione], for which, on PARP14, the DC50 was below 30 nM.

Regarding `O=C1CCC(Nc2ccc(N3CCC(N4CCC(SCc5nc6cc(OCC7CC7)cc(F)c6c(=O)[nH]5)CC4)CC3)c(F)c2)C(=O)N1` (stereo not shown) [Example 54, 3-((4-(4-(((7-(cyclopropylmethoxy)-5-fluoro-4-oxo-3,4-dihydroquinazolin-2-yl)methyl)thio)-[1,4′-bipiperidin]-1′-yl)-3-fluorophenyl)amino)piperidine-2,6-dione formate], on PARP14, the half-maximal degradation concentration (DC50) is below 30 nM.

Take `O=C1CCC(Nc2ccc(N3CCN(CCO[C@H]4CC[C@H](SCc5nc6cc(OCC7CC7)cc(F)c6c(=O)[nH]5)CC4)CC3)c(F)c2)C(=O)N1` (stereo partly shown) [Example 55, 3-((4-(4-(2-(((1r,4r)-4-(((7-(cyclopropylmethoxy)-5-fluoro-4-oxo-3,4-dihydroquinazolin-2-yl)methyl)thio)cyclohexyl)oxy)ethyl)piperazin-1-yl)-3-fluorophenyl)amino)piperidine-2,6-dione]: the DC50 at PARP14 is below 30 nM.

Consider `O=C1CCC(Nc2ccc(N3CCC(N4CCC(SCc5nc6cc(OCC7CC7)cc(F)c6c(=O)[nH]5)CC4)CC3)c(C(F)(F)F)c2)C(=O)N1` (stereo not shown) [Example 57, 3-((4-(4-(((7-(cyclopropylmethoxy)-5-fluoro-4-oxo-3,4-dihydroquinazolin-2-yl)methyl)thio)-[1,4′-bipiperidin]-1′-yl)-3-(trifluoromethyl)phenyl)amino)piperidine-2,6-dione], for which the 50% degradation concentration (DC50) at PARP14 is below 30 nM.

As for `O=C1CCC(Nc2ccc(N3CCN(CCN4CCC(OCc5nc6cc(OCC7CCOCC7)cc(F)c6c(=O)[nH]5)CC4)CC3)c(F)c2)C(=O)N1` (stereo not shown) [Example 44, 3-((3-fluoro-4-(4-(2-(4-((5-fluoro-4-oxo-7-((tetrahydro-2H-pyran-4-yl)methoxy)-3,4-dihydroquinazolin-2-yl)methoxy)piperidin-1-yl)ethyl)piperazin-1-yl)phenyl)amino)piperidine-2,6-dione], the DC50 on PARP14 was below 30 nM.

The values are drawn from patent US20240051946A1, “TARGETED PROTEIN DEGRADATION OF PARP14 FOR USE IN THERAPY” (Ribon Therapeutics, Inc., priority 2022, published 2024).
